# Tests used:
# [1] = system: Echinochloa oryzoides (Ard.) Fritsch.; assay: Preemergence weed control under flooded paddy conditions, ECHORC (Watergrass (Calif.)); assay type: in vivo; conditions: preemergence, flooded paddy, rated three to four weeks after treatment; note: meaning of each grade not given here
# [2] = system: Cyperus iria; assay: Preemergence weed control under flooded paddy conditions, CYPIR (Rice Flatsedge); assay type: in vivo; conditions: preemergence, flooded paddy, rated three to four weeks after treatment; note: meaning of each grade not given here
# [3] = system: Cyperus serotinus, Rottb.; assay: Preemergence weed control under flooded paddy conditions, CYPSE (Flatsedge); assay type: in vivo; conditions: preemergence, rated three to four weeks after treatment; note: meaning of each grade not given here
# [4] = system: Monochoria vaginalis, Presl.; assay: Preemergence weed control under flooded paddy conditions, MOOVA (Monochoria); assay type: in vivo; conditions: preemergence, flooded paddy, rated three to four weeks after treatment; note: meaning of each grade not given here
# [5] = system: Sagittaria pygmaea, L.; assay: Preemergence weed control under flooded paddy conditions, SAGPY (Arrowhead (Pygmaea)); assay type: in vivo; conditions: preemergence, flooded paddy, rated three to four weeks after treatment; note: meaning of each grade not given here
# [6] = system: Echinochloa oryzoides (Ard.) Fritsch.; assay: Postemergence weed control under flooded paddy conditions, ECHORC (Watergrass (Calif.)); assay type: in vivo; conditions: rated three to four weeks after treatment
# [7] = system: Cyperus iria; assay: Postemergence weed control under flooded paddy conditions, CYPIR (Rice Flatsedge); assay type: in vivo; conditions: rated three to four weeks after treatment
# [8] = system: Cyperus serotinus, Rottb.; assay: Postemergence weed control under flooded paddy conditions, CYPSE (Flatsedge); assay type: in vivo; conditions: rated three to four weeks after treatment
# [9] = system: Monochoria vaginalis, Presl.; assay: Postemergence weed control under flooded paddy conditions, MOOVA (Monochoria); assay type: in vivo; conditions: rated three to four weeks after treatment
# [10] = system: Sagittaria pygmaea, L.; assay: Postemergence weed control under flooded paddy conditions, SAGPY (Arrowhead (Pygmaea)); assay type: in vivo; conditions: rated three to four weeks after treatment
# [11] = system: Oryza sativa, (L.) Tebonnet; assay: Rice tolerance to post-transplant applications under flooded paddy conditions (Example 187), ORYSAT (Rice, Tebonnet); conditions: rated three to four weeks after treatment
# [12] = system: Oryza sativa, (L.) Tebonnet; assay: Rice tolerance to post-transplant applications under flooded paddy conditions (Example 188), ORYSAT (Rice, Tebonnet); conditions: rated three to four weeks after treatment
smiles,measurement,setting,value
"COc1ccc(C)cc1-c1nsc2ccc(-n3c(=O)cc(C(F)(F)F)n(C)c3=O)cc12 [Example 1, 3-[3-(6-Methoxy-m-tolyl)-1,2-benzisothiazol-5-yl]-1-methyl-6-(trifluoromethyl)-2,4(1H,3H)-pyrimidinedione]","herbicidal effect rating, ECHORC",[1]; 0.0313 kg/ha,9.0
same,"herbicidal effect rating, ECHORC",[1]; 0.0625 kg/ha,9.0
same,"herbicidal effect rating, ECHORC",[1]; 0.1250 kg/ha,9.0
same,"herbicidal effect rating, ECHORC",[1]; 0.2500 kg/ha,9.0
same,"herbicidal effect rating, ECHORC",[1]; 0.5000 kg/ha,9.0
same,"herbicidal effect rating, CYPIR",[2]; 0.0313 kg/ha,9.0
same,"herbicidal effect rating, CYPIR",[2]; 0.0625 kg/ha,9.0
same,"herbicidal effect rating, CYPIR",[2]; 0.1250 kg/ha,9.0
same,"herbicidal effect rating, CYPIR",[2]; 0.2500 kg/ha,9.0
same,"herbicidal effect rating, CYPIR",[2]; 0.5000 kg/ha,9.0
same,"herbicidal effect rating, CYPSE",[3]; 0.0313 kg/ha,1.3
same,"herbicidal effect rating, CYPSE",[3]; 0.0625 kg/ha,3.0
same,"herbicidal effect rating, CYPSE",[3]; 0.1250 kg/ha,6.0
same,"herbicidal effect rating, CYPSE",[3]; 0.2500 kg/ha,9.0
same,"herbicidal effect rating, CYPSE",[3]; 0.5000 kg/ha,8.0
same,"herbicidal effect rating, MOOVA",[4]; 0.0313 kg/ha,9.0
same,"herbicidal effect rating, MOOVA",[4]; 0.0625 kg/ha,9.0
same,"herbicidal effect rating, MOOVA",[4]; 0.1250 kg/ha,9.0
same,"herbicidal effect rating, MOOVA",[4]; 0.2500 kg/ha,9.0
same,"herbicidal effect rating, MOOVA",[4]; 0.5000 kg/ha,9.0
same,"herbicidal effect rating, SAGPY",[5]; 0.0313 kg/ha,3.3
same,"herbicidal effect rating, SAGPY",[5]; 0.0625 kg/ha,5.0
same,"herbicidal effect rating, SAGPY",[5]; 0.1250 kg/ha,6.7
same,"herbicidal effect rating, SAGPY",[5]; 0.2500 kg/ha,8.3
same,"herbicidal effect rating, SAGPY",[5]; 0.5000 kg/ha,8.5
same,"herbicidal effect rating, ECHORC",[6]; Rate 0.0313 kg/ha,1.0
same,"herbicidal effect rating, ECHORC",[6]; Rate 0.0625 kg/ha,2.5
same,"herbicidal effect rating, ECHORC",[6]; Rate 0.1250 kg/ha,6.5
same,"herbicidal effect rating, ECHORC",[6]; Rate 0.2500 kg/ha,8.0
same,"herbicidal effect rating, ECHORC",[6]; Rate 0.5000 kg/ha,9.0
same,"herbicidal effect rating, CYPIR",[7]; Rate 0.0313 kg/ha,0.0
same,"herbicidal effect rating, CYPIR",[7]; Rate 0.0625 kg/ha,4.0
same,"herbicidal effect rating, CYPIR",[7]; Rate 0.1250 kg/ha,9.0
same,"herbicidal effect rating, CYPIR",[7]; Rate 0.2500 kg/ha,9.0
same,"herbicidal effect rating, CYPIR",[7]; Rate 0.5000 kg/ha,9.0
same,"herbicidal effect rating, CYPSE",[8]; Rate 0.0313 kg/ha,1.0
same,"herbicidal effect rating, CYPSE",[8]; Rate 0.0625 kg/ha,1.0
same,"herbicidal effect rating, CYPSE",[8]; Rate 0.1250 kg/ha,3.0
same,"herbicidal effect rating, CYPSE",[8]; Rate 0.2500 kg/ha,5.5
same,"herbicidal effect rating, CYPSE",[8]; Rate 0.5000 kg/ha,6.5
same,"herbicidal effect rating, MOOVA",[9]; Rate 0.0313 kg/ha,0.0
same,"herbicidal effect rating, MOOVA",[9]; Rate 0.0625 kg/ha,1.0
same,"herbicidal effect rating, MOOVA",[9]; Rate 0.1250 kg/ha,4.5
same,"herbicidal effect rating, MOOVA",[9]; Rate 0.2500 kg/ha,5.5
same,"herbicidal effect rating, MOOVA",[9]; Rate 0.5000 kg/ha,6.5
same,"herbicidal effect rating, SAGPY",[10]; Rate 0.0313 kg/ha,0.0
same,"herbicidal effect rating, SAGPY",[10]; Rate 0.0625 kg/ha,0.0
same,"herbicidal effect rating, SAGPY",[10]; Rate 0.1250 kg/ha,0.0
same,"herbicidal effect rating, SAGPY",[10]; Rate 0.2500 kg/ha,1.0
same,"herbicidal effect rating, SAGPY",[10]; Rate 0.5000 kg/ha,3.0
same,"herbicidal effect rating, ORYSAT (rice tolerance)",[11]; 0.0313 kg/ha,4.7
same,"herbicidal effect rating, ORYSAT (rice tolerance)",[11]; 0.0625 kg/ha,4.7
same,"herbicidal effect rating, ORYSAT (rice tolerance)",[11]; 0.1250 kg/ha,5.3
same,"herbicidal effect rating, ORYSAT (rice tolerance)",[11]; 0.2500 kg/ha,7.7
same,"herbicidal effect rating, ORYSAT (rice tolerance)",[11]; 0.5000 kg/ha,7.0
same,"herbicidal effect rating, ORYSAT (rice tolerance)",[12]; Rate 0.0313 kg/ha,3.0
same,"herbicidal effect rating, ORYSAT (rice tolerance)",[12]; Rate 0.0625 kg/ha,3.0
same,"herbicidal effect rating, ORYSAT (rice tolerance)",[12]; Rate 0.1250 kg/ha,4.0
same,"herbicidal effect rating, ORYSAT (rice tolerance)",[12]; Rate 0.2500 kg/ha,6.0
same,"herbicidal effect rating, ORYSAT (rice tolerance)",[12]; Rate 0.5000 kg/ha,7.0
"COC(=O)COc1ccc(C)cc1-c1nsc2ccc(-n3c(=O)cc(C(F)(F)F)n(C)c3=O)cc12 [Example 2, Methyl {{2-{5-[3,6-dihydro-3-methyl-4-(trifluoromethyl)-2,6-dioxo-1(2H)-pyrimidinyl]-1,2-benzisothiazol-3-yl}-p-tolyl}oxy}acetate]","herbicidal effect rating, ECHORC",[1]; 0.0313 kg/ha,9.0
same,"herbicidal effect rating, ECHORC",[1]; 0.0625 kg/ha,9.0
same,"herbicidal effect rating, ECHORC",[1]; 0.1250 kg/ha,9.0
same,"herbicidal effect rating, ECHORC",[1]; 0.2500 kg/ha,9.0
same,"herbicidal effect rating, ECHORC",[1]; 0.5000 kg/ha,9.0
same,"herbicidal effect rating, CYPIR",[2]; 0.0313 kg/ha,8.0
same,"herbicidal effect rating, CYPIR",[2]; 0.0625 kg/ha,9.0
same,"herbicidal effect rating, CYPIR",[2]; 0.1250 kg/ha,9.0
same,"herbicidal effect rating, CYPIR",[2]; 0.2500 kg/ha,9.0
same,"herbicidal effect rating, CYPIR",[2]; 0.5000 kg/ha,9.0
same,"herbicidal effect rating, CYPSE",[3]; 0.0313 kg/ha,0.0
same,"herbicidal effect rating, CYPSE",[3]; 0.0625 kg/ha,0.0
same,"herbicidal effect rating, CYPSE",[3]; 0.1250 kg/ha,0.0
same,"herbicidal effect rating, CYPSE",[3]; 0.2500 kg/ha,0.0
same,"herbicidal effect rating, CYPSE",[3]; 0.5000 kg/ha,0.0
same,"herbicidal effect rating, MOOVA",[4]; 0.0313 kg/ha,7.0
same,"herbicidal effect rating, MOOVA",[4]; 0.0625 kg/ha,9.0
same,"herbicidal effect rating, MOOVA",[4]; 0.1250 kg/ha,9.0
same,"herbicidal effect rating, MOOVA",[4]; 0.2500 kg/ha,9.0
same,"herbicidal effect rating, MOOVA",[4]; 0.5000 kg/ha,9.0
same,"herbicidal effect rating, SAGPY",[5]; 0.0313 kg/ha,0.0
same,"herbicidal effect rating, SAGPY",[5]; 0.0625 kg/ha,0.0
same,"herbicidal effect rating, SAGPY",[5]; 0.1250 kg/ha,2.0
same,"herbicidal effect rating, SAGPY",[5]; 0.2500 kg/ha,4.0
same,"herbicidal effect rating, SAGPY",[5]; 0.5000 kg/ha,9.0
same,"herbicidal effect rating, ECHORC",[6]; Rate 0.0313 kg/ha,4.0
same,"herbicidal effect rating, ECHORC",[6]; Rate 0.0625 kg/ha,4.0
same,"herbicidal effect rating, ECHORC",[6]; Rate 0.1250 kg/ha,7.0
same,"herbicidal effect rating, ECHORC",[6]; Rate 0.2500 kg/ha,9.0
same,"herbicidal effect rating, ECHORC",[6]; Rate 0.5000 kg/ha,9.0
same,"herbicidal effect rating, CYPIR",[7]; Rate 0.0313 kg/ha,9.0
same,"herbicidal effect rating, CYPIR",[7]; Rate 0.0625 kg/ha,9.0
same,"herbicidal effect rating, CYPIR",[7]; Rate 0.1250 kg/ha,9.0
same,"herbicidal effect rating, CYPIR",[7]; Rate 0.2500 kg/ha,9.0
same,"herbicidal effect rating, CYPIR",[7]; Rate 0.5000 kg/ha,9.0
same,"herbicidal effect rating, CYPSE",[8]; Rate 0.0313 kg/ha,0.0
same,"herbicidal effect rating, CYPSE",[8]; Rate 0.0625 kg/ha,0.0
same,"herbicidal effect rating, CYPSE",[8]; Rate 0.1250 kg/ha,0.0
same,"herbicidal effect rating, CYPSE",[8]; Rate 0.2500 kg/ha,0.0
same,"herbicidal effect rating, CYPSE",[8]; Rate 0.5000 kg/ha,0.0
same,"herbicidal effect rating, MOOVA",[9]; Rate 0.0313 kg/ha,9.0
same,"herbicidal effect rating, MOOVA",[9]; Rate 0.0625 kg/ha,9.0
same,"herbicidal effect rating, MOOVA",[9]; Rate 0.1250 kg/ha,9.0
same,"herbicidal effect rating, MOOVA",[9]; Rate 0.2500 kg/ha,9.0
same,"herbicidal effect rating, MOOVA",[9]; Rate 0.5000 kg/ha,9.0
same,"herbicidal effect rating, SAGPY",[10]; Rate 0.0313 kg/ha,0.0
same,"herbicidal effect rating, SAGPY",[10]; Rate 0.0625 kg/ha,0.0
same,"herbicidal effect rating, SAGPY",[10]; Rate 0.1250 kg/ha,0.0
same,"herbicidal effect rating, SAGPY",[10]; Rate 0.2500 kg/ha,2.0
same,"herbicidal effect rating, SAGPY",[10]; Rate 0.5000 kg/ha,4.0
same,"herbicidal effect rating, ORYSAT (rice tolerance)",[11]; 0.0313 kg/ha,2.0
same,"herbicidal effect rating, ORYSAT (rice tolerance)",[11]; 0.0625 kg/ha,3.0
same,"herbicidal effect rating, ORYSAT (rice tolerance)",[11]; 0.1250 kg/ha,3.0
same,"herbicidal effect rating, ORYSAT (rice tolerance)",[11]; 0.2500 kg/ha,5.0
same,"herbicidal effect rating, ORYSAT (rice tolerance)",[11]; 0.5000 kg/ha,9.0
same,"herbicidal effect rating, ORYSAT (rice tolerance)",[12]; Rate 0.0313 kg/ha,2.0
same,"herbicidal effect rating, ORYSAT (rice tolerance)",[12]; Rate 0.0625 kg/ha,2.0
same,"herbicidal effect rating, ORYSAT (rice tolerance)",[12]; Rate 0.1250 kg/ha,3.0
same,"herbicidal effect rating, ORYSAT (rice tolerance)",[12]; Rate 0.2500 kg/ha,7.0
same,"herbicidal effect rating, ORYSAT (rice tolerance)",[12]; Rate 0.5000 kg/ha,8.0

# Reference: patent publication EP0908457B1, “3-(1,2-benzisothiazol- and isoxazol-5-Y1)-2,4(1H,3H)-pyrimidinedione or thione and 3-(1,2-benzisothiazol- and isoxazol-5-y1)-4(3H)-pyrimidinone or thione herbicidal agents” (BASF AKTIENGESELLSCHAFT, priority 1997, dated 1999)
